PubChem BioAssay (NCI)
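Step 1: Grow cells in 96-well plates. Step 2: Expose to compound for 48 hours at 5 concentrations. Step 3: Interpolate endpoints linearly; if unreached, use highest concentration. The concentration for full growth arrest is given as TGI.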 Where a SMILES comes first, the peptide text is derived from it. [ ]: non-standard residue; d: D form. The star is where a group is joined. mTyr = N[CH](Cc1cccc(O)c1)C(=O)O; Cbz = O=C(OCc1ccccc1)*; OBn = c1ccc(CO*)cc1

How the values were obtained:
Experiment in all cases: NCI anticancer screen, dose series, 48 h
SK-MEL-28 melanoma = tested on: SK-MEL-28 melanoma
KM12 colon = tested on: KM12 colon
HT29 colon = tested on: HT29 colon
U251 CNS = tested on: U251 CNS
NCI-H23 lung = tested on: NCI-H23 lung
MDA-MB-435 = tested on: MDA-MB-435
CAKI-1 renal = tested on: CAKI-1 renal
MDA-MB-231 breast = tested on: MDA-MB-231 breast
HS 578T breast = tested on: HS 578T breast
MCF7 breast = tested on: MCF7 breast

CN(CCCNC(=O)c1nn(-c2ccc(Cl)cc2Cl)c2c1Cc1ccccc1-2)CCCNC(=O)c1nn(-c2ccc(Cl)cc2Cl)c2c1Cc1ccccc1-2
TGI (SK-MEL-28 melanoma): 3.3 µM
TGI (KM12 colon): 4.01 µM
TGI (HT29 colon): 3.42 µM
TGI (U251 CNS): 3.1 µM
TGI (NCI-H23 lung): 3.48 µM
TGI (MDA-MB-435): 2.57 µM
TGI (CAKI-1 renal): 2.95 µM
TGI (MDA-MB-231 breast): 3.18 µM

COc1ccc(C(=O)c2[nH]c(Nc3ccc(Cl)cc3)c(C(=S)Nc3ccccc3)c2N)cc1
TGI (HS 578T breast): > 100 µM
TGI (SK-MEL-28 melanoma): 87 µM
TGI (KM12 colon): > 100 µM
TGI (HT29 colon): > 100 µM
TGI (NCI-H23 lung): > 100 µM
TGI (MDA-MB-435): > 100 µM
TGI (CAKI-1 renal): > 100 µM
TGI (MCF7 breast): > 100 µM
TGI (MDA-MB-231 breast): > 100 µM

COC(=O)C(Cc1cccc(O)c1)NC(=O)C(CC(=O)OCc1ccccc1)NC(=O)OCc1ccccc1 (configuration not stated) (Cbz-Asp(OBn)-[mTyr]-OMe; configuration not given here)
TGI (HS 578T breast): > 100 µM
TGI (SK-MEL-28 melanoma): > 100 µM
TGI (KM12 colon): > 100 µM
TGI (HT29 colon): > 100 µM
TGI (U251 CNS): > 100 µM
TGI (NCI-H23 lung): > 100 µM
TGI (MCF7 breast): > 100 µM
TGI (MDA-MB-231 breast): > 100 µM

O=C(CC(=O)Nc1ccccc1)N/N=C/c1cc(N=Nc2ccc(Br)cc2)ccc1O
TGI (HS 578T breast): > 10 µM
TGI (SK-MEL-28 melanoma): > 10 µM
TGI (KM12 colon): > 10 µM
TGI (U251 CNS): > 10 µM
TGI (NCI-H23 lung): > 10 µM
TGI (CAKI-1 renal): > 10 µM
TGI (MCF7 breast): > 10 µM
TGI (MDA-MB-231 breast): > 10 µM

COc1cc(/C=C(/C#N)C(N)=O)ccc1O
TGI (SK-MEL-28 melanoma): > 100 µM
TGI (KM12 colon): > 100 µM
TGI (HT29 colon): > 100 µM
TGI (U251 CNS): > 100 µM
TGI (NCI-H23 lung): > 100 µM
TGI (CAKI-1 renal): > 100 µM
TGI (MCF7 breast): > 100 µM

Cc1ccc(N=Nc2c(O)c(C(=O)Nc3ccccc3)cc3ccccc23)c([N+](=O)[O-])c1
TGI (HS 578T breast): > 100 µM
TGI (SK-MEL-28 melanoma): > 100 µM
TGI (KM12 colon): > 100 µM
TGI (HT29 colon): > 100 µM
TGI (U251 CNS): > 100 µM
TGI (NCI-H23 lung): > 100 µM
TGI (MDA-MB-435): > 100 µM
TGI (CAKI-1 renal): > 100 µM
TGI (MDA-MB-231 breast): > 100 µM

COc1ccc(CSc2ccccc2Cn2cccc2)cc1OC
TGI (SK-MEL-28 melanoma): > 100 µM
TGI (KM12 colon): > 100 µM
TGI (HT29 colon): > 100 µM
TGI (U251 CNS): > 100 µM
TGI (NCI-H23 lung): > 100 µM
TGI (MDA-MB-435): > 100 µM
TGI (CAKI-1 renal): > 100 µM
TGI (MCF7 breast): > 100 µM

CCCc1ccc(NCc2cc(OC)c(OC)c(OC)c2)cc1
TGI (SK-MEL-28 melanoma): 73.9 µM
TGI (KM12 colon): 55.2 µM
TGI (HT29 colon): 61.7 µM
TGI (U251 CNS): 81.9 µM
TGI (NCI-H23 lung): 69.2 µM

CCOC(=O)CSc1nnc(C(Sc2nc(-c3ccccc3)c(-c3ccccc3)[nH]2)C(C)C)n1-c1ccccc1 (configuration not stated)
TGI (SK-MEL-28 melanoma): 29 µM
TGI (KM12 colon): > 31.6 µM
TGI (HT29 colon): 19.4 µM
TGI (U251 CNS): > 10 µM
TGI (NCI-H23 lung): > 10 µM
TGI (MCF7 breast): > 100 µM
TGI (MDA-MB-231 breast): 64.1 µM

CC(C)=C/C=C1/CS(=O)(=O)C=C1C
TGI (SK-MEL-28 melanoma): > 100 µM
TGI (KM12 colon): > 100 µM
TGI (HT29 colon): > 100 µM
TGI (U251 CNS): > 100 µM
TGI (NCI-H23 lung): > 100 µM
TGI (MDA-MB-435): > 100 µM
TGI (CAKI-1 renal): > 100 µM
TGI (MCF7 breast): > 100 µM
TGI (MDA-MB-231 breast): > 100 µM

O[C@H]1[C@H](O)[C@@H](O)[C@@]2(O)C[C@@H](O)[C@@H]1N2
TGI (HS 578T breast): > 100 µM
TGI (SK-MEL-28 melanoma): > 100 µM
TGI (KM12 colon): > 100 µM
TGI (HT29 colon): > 100 µM
TGI (U251 CNS): > 100 µM
TGI (NCI-H23 lung): > 100 µM
TGI (MDA-MB-435): > 100 µM
TGI (MCF7 breast): > 100 µM
TGI (MDA-MB-231 breast): > 100 µM

CCOc1cc(NC(C)=O)ccc1C(=O)NN1C(=O)C(Cl)C1c1ccco1 (configuration not stated)
TGI (HS 578T breast): 65.5 µM
TGI (SK-MEL-28 melanoma): 63.5 µM
TGI (KM12 colon): 33.6 µM
TGI (HT29 colon): 38.8 µM
TGI (NCI-H23 lung): 39 µM
TGI (MDA-MB-435): 32.3 µM
TGI (CAKI-1 renal): 30.9 µM
TGI (MCF7 breast): 26.8 µM
TGI (MDA-MB-231 breast): 31.1 µM

N#C/C(=C\c1c[nH]c2ccccc12)C(=O)c1ccc(O)c(O)c1
TGI (HS 578T breast): > 100 µM
TGI (SK-MEL-28 melanoma): > 100 µM
TGI (KM12 colon): > 100 µM
TGI (HT29 colon): > 70.8 µM
TGI (U251 CNS): > 100 µM
TGI (NCI-H23 lung): > 100 µM
TGI (MDA-MB-435): > 100 µM
TGI (CAKI-1 renal): > 100 µM
TGI (MCF7 breast): > 100 µM

Cc1cc(NCCCCCCCNc2cc(C)nc3cc([N+](=O)[O-])ccc23)c2ccc([N+](=O)[O-])cc2n1
TGI (HS 578T breast): 5.53 µM
TGI (SK-MEL-28 melanoma): 10.1 µM
TGI (KM12 colon): 3.74 µM
TGI (HT29 colon): 8.43 µM
TGI (U251 CNS): 27.4 µM
TGI (NCI-H23 lung): > 24.9 µM
TGI (MDA-MB-435): 39 µM
TGI (CAKI-1 renal): 65.2 µM
TGI (MDA-MB-231 breast): 6.58 µM

O=C1C[C@@H](c2ccccc2)O[C@@H](c2ccccc2)C1
TGI (HS 578T breast): > 100 µM
TGI (KM12 colon): > 100 µM
TGI (HT29 colon): > 100 µM
TGI (U251 CNS): > 100 µM
TGI (NCI-H23 lung): > 100 µM
TGI (MDA-MB-435): > 100 µM
TGI (CAKI-1 renal): > 100 µM
TGI (MCF7 breast): > 100 µM
TGI (MDA-MB-231 breast): > 100 µM

c1ccc(CSCCc2ccncc2)cc1
TGI (HS 578T breast): > 100 µM
TGI (SK-MEL-28 melanoma): > 100 µM
TGI (KM12 colon): > 100 µM
TGI (HT29 colon): > 100 µM
TGI (U251 CNS): > 100 µM
TGI (NCI-H23 lung): > 100 µM
TGI (MDA-MB-435): > 100 µM
TGI (MCF7 breast): > 100 µM
TGI (MDA-MB-231 breast): > 100 µM

CCOC(=O)[C@H](Cc1ccc(O)cc1)N=C1[C@H]2CCC[C@]1(O)[C@@](C)([N+](=O)[O-])C2
TGI (HS 578T breast): > 100 µM
TGI (SK-MEL-28 melanoma): > 100 µM
TGI (KM12 colon): > 100 µM
TGI (HT29 colon): > 100 µM
TGI (U251 CNS): > 100 µM
TGI (NCI-H23 lung): > 100 µM
TGI (MDA-MB-435): > 100 µM
TGI (CAKI-1 renal): > 100 µM
TGI (MCF7 breast): > 100 µM

COc1ccc(/C=C2\CN(C)C/C(=C\c3ccc(OC)c(OC)c3OC)C2=O)c(OC)c1OC
TGI (HS 578T breast): > 100 µM
TGI (SK-MEL-28 melanoma): 0.393 µM
TGI (U251 CNS): 0.177 µM
TGI (MDA-MB-435): 0.0541 µM
TGI (CAKI-1 renal): 1.55 µM
TGI (MDA-MB-231 breast): 0.488 µM

CC(NC(C)(C)C)C(=O)c1cccc(Cl)c1 (configuration not stated)
TGI (SK-MEL-28 melanoma): > 100 µM
TGI (KM12 colon): > 100 µM
TGI (HT29 colon): > 100 µM
TGI (U251 CNS): > 100 µM
TGI (NCI-H23 lung): > 100 µM
TGI (CAKI-1 renal): > 100 µM

COc1cc2c(cc1OC)C1(c3ccc(Cl)cc3)ON=C(c3ccccc3)N1CS2 (configuration not stated)
TGI (SK-MEL-28 melanoma): > 100 µM
TGI (KM12 colon): > 100 µM
TGI (HT29 colon): > 100 µM
TGI (U251 CNS): > 100 µM
TGI (NCI-H23 lung): > 100 µM
TGI (CAKI-1 renal): > 100 µM

[N-]=[N+]=C1C(=O)C2CC3CC(C2)CC1C3
TGI (SK-MEL-28 melanoma): > 100 µM
TGI (KM12 colon): > 100 µM
TGI (HT29 colon): > 100 µM
TGI (U251 CNS): > 100 µM
TGI (NCI-H23 lung): > 100 µM
TGI (CAKI-1 renal): > 100 µM

Cc1n[nH]c(=O)n1/N=C/c1ccc([N+](=O)[O-])o1
TGI (SK-MEL-28 melanoma): 28.3 µM
TGI (KM12 colon): 29.3 µM
TGI (HT29 colon): 30.1 µM
TGI (U251 CNS): > 53.7 µM
TGI (NCI-H23 lung): 32.4 µM
TGI (MDA-MB-435): 18.6 µM
TGI (CAKI-1 renal): 19.9 µM
TGI (MCF7 breast): > 100 µM
TGI (MDA-MB-231 breast): 74.9 µM

COC(=O)CC1NC(=O)C1C1(C)OCCO1 (configuration not stated)
TGI (SK-MEL-28 melanoma): > 100 µM
TGI (HT29 colon): > 100 µM
TGI (U251 CNS): > 100 µM
TGI (NCI-H23 lung): > 100 µM

Cc1ccc(CC(C)N)cc1 (configuration not stated)
TGI (SK-MEL-28 melanoma): > 100 µM
TGI (KM12 colon): > 100 µM
TGI (HT29 colon): > 100 µM
TGI (U251 CNS): > 100 µM
TGI (NCI-H23 lung): > 100 µM
TGI (CAKI-1 renal): > 100 µM

COc1cc(-c2cc(-c3cc([N+](=O)[O-])c(/C=N/NC(=O)c4ccncc4)o3)ccc2OC)ccc1C
TGI (SK-MEL-28 melanoma): > 100 µM
TGI (HT29 colon): > 100 µM
TGI (NCI-H23 lung): > 100 µM
TGI (CAKI-1 renal): > 100 µM

COc1cccc(NC(=O)C(C#N)=C(SC)SC)c1
TGI (HS 578T breast): > 100 µM
TGI (SK-MEL-28 melanoma): > 100 µM
TGI (KM12 colon): > 100 µM
TGI (HT29 colon): > 100 µM
TGI (U251 CNS): > 100 µM
TGI (MDA-MB-435): > 100 µM
TGI (CAKI-1 renal): > 100 µM
TGI (MCF7 breast): > 100 µM
TGI (MDA-MB-231 breast): > 100 µM
